Assay results as given in patent publication US8163909B2, “Substituted hydroxyethyl amine compounds as beta-secretase modulators and methods of use” (Amgen Inc., priority 2007, dated 2012).

Columns and labels:
[1] = test system: Aβ40 in conditioned medium of cells stably expressing Amyloid Precursor Protein (APP); assay: In vitro BACE cell-based assay (Aβ40 in conditioned medium, sandwich ELISA); details: Homo sapiens, HEK293, HEK cells; read-out: HEK cell assay (IC50);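 further: compounds added as a dilution series, secreted peptide quantified by europium time-resolved fluorescence readout, potency fitted from percent of control versus compound concentration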
[2] = target: CYP2D6 (Homo sapiens, UniProt P10635); assay: CYP2D6 inhibition assay (bufuralol, pooled human liver microsomes); details: 2D6 IC50, CYP2D6 inhibition
Sequence of CYP2D6 (P10635 whole entry): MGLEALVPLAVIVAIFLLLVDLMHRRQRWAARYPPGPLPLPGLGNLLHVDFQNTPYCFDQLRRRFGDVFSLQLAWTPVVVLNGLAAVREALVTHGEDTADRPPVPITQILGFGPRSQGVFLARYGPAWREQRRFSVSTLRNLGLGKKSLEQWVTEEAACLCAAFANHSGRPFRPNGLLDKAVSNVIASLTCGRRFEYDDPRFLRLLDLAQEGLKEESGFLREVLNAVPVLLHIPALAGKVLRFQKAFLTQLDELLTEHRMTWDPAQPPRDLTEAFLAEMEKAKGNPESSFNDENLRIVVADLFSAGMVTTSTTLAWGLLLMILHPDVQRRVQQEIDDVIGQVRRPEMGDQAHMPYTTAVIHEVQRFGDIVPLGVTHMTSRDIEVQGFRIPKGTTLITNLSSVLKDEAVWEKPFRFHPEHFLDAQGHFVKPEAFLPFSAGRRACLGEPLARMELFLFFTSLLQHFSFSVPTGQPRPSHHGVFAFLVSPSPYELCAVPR

[3] = target: CYP3A4 (CYP3A) (Homo sapiens, UniProt P08684); assay: in vitro; details: microsomes, pH 7.4;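 further: inhibition of CYP3A-mediated 1-hydroxymidazolam formation after 10 min incubation with NADPH, quantified by HPLC MS relative to metabolite produced without test compound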
Sequence of CYP3A4 (CYP3A) (P08684 2-503): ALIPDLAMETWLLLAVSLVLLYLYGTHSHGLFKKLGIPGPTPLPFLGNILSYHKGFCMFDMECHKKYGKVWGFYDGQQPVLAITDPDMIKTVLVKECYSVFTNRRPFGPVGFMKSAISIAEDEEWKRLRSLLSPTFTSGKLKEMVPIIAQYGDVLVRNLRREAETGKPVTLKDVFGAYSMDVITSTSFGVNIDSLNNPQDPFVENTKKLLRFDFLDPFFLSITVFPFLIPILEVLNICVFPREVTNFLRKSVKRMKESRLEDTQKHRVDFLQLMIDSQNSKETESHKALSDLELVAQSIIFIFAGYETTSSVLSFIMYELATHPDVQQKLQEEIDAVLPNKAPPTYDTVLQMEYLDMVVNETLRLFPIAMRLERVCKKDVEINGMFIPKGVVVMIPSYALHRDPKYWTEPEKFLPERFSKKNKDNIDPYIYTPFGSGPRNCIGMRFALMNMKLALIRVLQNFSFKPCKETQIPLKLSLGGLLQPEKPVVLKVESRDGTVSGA

[4] = Microsomal stability assay, rat liver microsomes; details: rat liver microsomes;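 further: rat liver microsomes (0.25 mg/mL) with about 1 µM compound plus 1 mM NADPH, pH 7.4, 37 °C for 30 min, parent left measured by LC-MS/MS against 0 min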
[5] = Microsomal stability assay, human liver microsomes; details: human liver microsomes;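 further: pooled human liver microsomes at 0.25 mg/mL with 1 µM compound and NADPH at 37 °C, pH 7.4, for 30 min, unchanged parent quantified by LC-MS/MS against the 0 min sample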
[6] = target: Beta Secretase enzyme (BACE) (Homo sapiens, UniProt P56817); assay: In vitro enzymatic BACE FRET (fluorescence resonance energy transfer) assay; assay type: biochemical; details: read-out: BACE1 FRET assay (IC50);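 further: fluorescence read after 1 h with 50 nM quenched peptide substrate spanning the BACE cleavage site, in pH 4.2 acetate buffer containing 10% DMSO and nonionic detergent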
Sequence of Beta Secretase enzyme (BACE) (P56817 46-501): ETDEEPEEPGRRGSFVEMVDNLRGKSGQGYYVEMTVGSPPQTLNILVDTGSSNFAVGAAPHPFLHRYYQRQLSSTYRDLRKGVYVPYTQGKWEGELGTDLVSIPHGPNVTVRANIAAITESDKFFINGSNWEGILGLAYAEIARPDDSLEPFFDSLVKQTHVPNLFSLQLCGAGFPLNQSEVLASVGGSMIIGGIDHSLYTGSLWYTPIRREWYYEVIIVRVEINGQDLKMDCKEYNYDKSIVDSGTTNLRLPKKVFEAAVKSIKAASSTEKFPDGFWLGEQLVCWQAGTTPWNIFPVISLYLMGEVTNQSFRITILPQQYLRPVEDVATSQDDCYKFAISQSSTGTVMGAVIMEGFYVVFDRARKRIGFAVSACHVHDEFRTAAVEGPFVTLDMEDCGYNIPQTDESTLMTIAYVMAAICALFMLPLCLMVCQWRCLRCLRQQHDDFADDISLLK

Structure (SMILES) | IC50 [1] | IC50 [2] | IC50 [3] | RLM [4] | HLM [5] | IC50 [6]
COCC(=O)N[C@@H](Cc1ccc(F)cc1)[C@H](O)CN[C@H]1CC2(CCC2)Oc2c1cc(CC(C)(C)C)nc2Nc1ccccc1 [compound 612] | > 10000 nM | ≥ 27000 nM | ≥ 27000 nM | 245 µL/min/mg | 176 µL/min/mg | 210 nM
COCC(=O)N[C@@H](Cc1cc(F)cc(-c2ccncc2)c1)[C@H](O)CN[C@H]1CC2(CCC2)Oc2ncc(CC(C)(C)C)cc21 [compound 613] | 11 nM | 300 nM | 160 nM | 142 µL/min/mg | 228 µL/min/mg | 20 nM
CC(=O)N[C@@H](Cc1cc(F)cc(-c2ccncc2)c1)[C@H](O)CN[C@H]1CC2(CCC2)Oc2ncc(CC(C)(C)C)cc21 [compound 614] | 8 nM | 400 nM | 160 nM | 107 µL/min/mg | 244 µL/min/mg | 12 nM
CC(=O)N[C@@H](Cc1cccc(-n2ccnc2)c1)[C@H](O)CN[C@H]1CC2(CCC2)Oc2ncc(CC(C)(C)C)cc21 [compound 615, N-((1S,2R)-3-(((4′S)-6′-(2,2-dimethylpropyl)-3′,4′-dihydrospiro[cyclobutane-1,2′-pyrano[2,3-b]pyridin]-4′-yl)amino)-2-hydroxy-1-(3-(1H-imidazol-1-yl)benzyl)propyl)acetamide] | 7 nM | 160 nM | 160 nM | 32 µL/min/mg | 59 µL/min/mg | 60 nM
CC(=O)N[C@@H](Cc1cccc(-c2ccncc2)c1)[C@H](O)CN[C@H]1CC2(CCC2)Oc2ncc(CC(C)(C)C)cc21 [compound 616, N-((1S,2R)-3-(((4′S)-6′-(2,2-dimethylpropyl)-3′,4′-dihydrospiro[cyclobutane-1,2′-pyrano[2,3-b]pyridin]-4′-yl)amino)-2-hydroxy-1-(3-(4-pyridinyl)benzyl)propyl)acetamide] | 10 nM | 300 nM | 160 nM | 96 µL/min/mg | 228 µL/min/mg | 17 nM
CC(=O)N[C@@H](Cc1cccc(-c2ccncc2)c1)[C@H](O)CN[C@H]1CC2(CCC2)Oc2ccc(CC(C)(C)C)cc21 [compound 618] | 38 nM | 300 nM | 160 nM | 344 µL/min/mg | 413 µL/min/mg | 31 nM
CC(=O)N[C@@H](Cc1ccc(F)c(-c2nccs2)c1)[C@H](O)CN[C@H]1CC2(CCC2)Oc2ncc(CC(C)(C)C)cc21 [compound 621, N-((1S,2R)-3-(((4′S)-6′-(2,2-dimethylpropyl)-3′,4′-dihydrospiro[cyclobutane-1,2′-pyrano[2,3-b]pyridin]-4′-yl)amino)-1-(4-fluoro-3-(1,3-thiazol-2-yl)benzyl)-2-hydroxypropyl)acetamide] | 10 nM | 900 nM | 160 nM | 64 µL/min/mg | 45 µL/min/mg | 1 nM
CC(=O)N[C@@H](Cc1cccc(-c2cccnc2)c1)[C@H](O)CN[C@H]1CC2(CCC2)Oc2ncc(CC(C)(C)C)cc21 [compound 623] | 6 nM | 1300 nM | 160 nM | 601 µL/min/mg | 829 µL/min/mg | 8 nM
CC(=O)N[C@@H](Cc1cc(Br)c2c(c1)OCO2)[C@H](O)CN[C@H]1CC2(CCC2)Oc2ncc(CC(C)(C)F)cc21 [compound 624] | 81 nM | 1200 nM | 160 nM | 150 µL/min/mg | 48 µL/min/mg | 200 nM
CC(=O)N[C@@H](Cc1ccc(F)c(-c2ccncc2)c1)[C@H](O)CN[C@H]1CC2(CCC2)Oc2ccc(CC(C)(C)C)cc21 [compound 625] | 57 nM | 200 nM | 160 nM | 330 µL/min/mg | 389 µL/min/mg | 42 nM
CO[C@H](C)C(=O)N[C@@H](Cc1ccc2c(c1)OCO2)[C@H](O)CN[C@H]1CC2(CCC2)C(=O)c2ncc(CC(C)(C)C)cc21 [compound 626] | 108 nM | 14400 nM | 500 nM | 260 µL/min/mg | 153 µL/min/mg | 133 nM
CC(=O)N[C@@H](Cc1cc(F)cc(F)c1)[C@H](O)CN[C@H]1CC2(CCC2)Oc2ncc(C(F)(F)C(C)(C)C)cc21 [compound 627] | 47 nM | 26100 nM | 2100 nM | 166 µL/min/mg | 829 µL/min/mg | 7 nM
COCC(=O)N[C@@H](Cc1cc(F)cc(F)c1)[C@H](O)CN[C@H]1CC2(CCC2)Oc2c1cc(CC(C)(C)C)nc2-c1ccc2c(c1)OCO2 [compound 629] | 121 nM | ≥ 27000 nM | 1200 nM | 209 µL/min/mg | 171 µL/min/mg | 9 nM
COCC(=O)N[C@@H](Cc1cc(F)cc(F)c1)[C@H](O)CN[C@H]1CC2(CCC2)Oc2c(-c3cncn3C)cc(CC(C)C)cc21 [compound 631] | 4 nM | 3900 nM | 100 nM | 209 µL/min/mg | 36 µL/min/mg | 19 nM
COCC(=O)N[C@@H](Cc1cncs1)[C@H](O)CN[C@H]1CC2(CCC2)Oc2c(-c3ccncc3)cc(CC(C)(C)C)cc21 [compound 633] | 11 nM | 3000 nM | 100 nM | 153 µL/min/mg | 53 µL/min/mg | 21 nM
CO[C@H](C)C(=O)N[C@@H](Cc1ccccc1)[C@H](O)CN[C@H]1CC2(CCC2)Oc2c(-c3cncn3C)cc(CC(C)C)cc21 [compound 634] | 14 nM | 4500 nM | 100 nM | 340 µL/min/mg | 50 µL/min/mg | 126 nM
CC(=O)N[C@@H](Cc1cccc(C#N)c1)[C@H](O)CN[C@H]1CC2(CCC2)Oc2c(-c3ccncc3)cc(CC(C)(C)C)cc21 [compound 637] | 4 nM | 2800 nM | 100 nM | 105 µL/min/mg | 34 µL/min/mg | 10 nM
COCC(=O)N[C@@H](Cc1cccc(F)c1)[C@H](O)CN[C@H]1CC2(CCC2)Oc2c(-c3ccnc(Cl)c3)cc(CC(C)(C)C)cc21 [compound 639, N-((1S,2R)-3-(((4S)-8-(2-chloro-4-pyridinyl)-6-(2,2-dimethylpropyl)-3,4-dihydrospiro[chromene-2,1′-cyclobutan]-4-yl)amino)-1-(3-fluorobenzyl)-2-hydroxypropyl)-2-methoxyacetamide] | 25 nM | 1800 nM | 1200 nM | 399 µL/min/mg | 706 µL/min/mg | 5 nM
CC(=O)N[C@@H](Cc1cc2c(c(-c3ccncc3)c1)OCO2)[C@H](O)CN[C@H]1CC2(CCC2)Oc2ncc(CC(C)(C)C)cc21 [compound 645] | 406 nM | 300 nM | 100 nM | 62 µL/min/mg | 451 µL/min/mg | 441 nM
CC(=O)N[C@@H](Cc1cc(F)cc(-c2ccco2)c1)[C@H](O)CN[C@H]1CC2(CCC2)Oc2ccc(CC(C)(C)C)cc21 [compound 646] | 104 nM | 1600 nM | 2000 nM | 344 µL/min/mg | 326 µL/min/mg | 4 nM
CC(C)(C)Cc1cnc2c(c1)[C@@H](NC[C@@H](O)[C@H](Cc1ccc(F)cc1)NC(=O)COC(F)F)CC1(CCC1)O2 [compound 647] | 39 nM | 2700 nM | 400 nM | 269 µL/min/mg | 303 µL/min/mg | 8 nM
CC(=O)N[C@@H](Cc1ccc(F)c(-c2cccnc2)c1)[C@H](O)CN[C@H]1CC2(CCC2)Oc2ccc(CC(C)(C)C)cc21 [compound 648] | 45 nM | 400 nM | 100 nM | 560 µL/min/mg | 551 µL/min/mg | 8 nM
CC(=O)N[C@@H](Cc1cc(F)cc(-c2cccnc2)c1)[C@H](O)CN[C@H]1CC2(CCC2)Oc2ccc(CC(C)(C)C)cc21 [compound 649] | 30 nM | 500 nM | 300 nM | 482 µL/min/mg | 706 µL/min/mg | 7 nM
CO[C@H](C)C(=O)N[C@@H](Cc1ccc(O)c(O)c1)[C@H](O)CN[C@H]1CC2(CCC2)Oc2ncc(CC(C)(C)C)cc21 [compound 651] | 12 nM | 10800 nM | 1600 nM | 147 µL/min/mg | 171 µL/min/mg | 8 nM
CO[C@H](C)C(=O)N[C@@H](Cc1ccncc1)[C@H](O)CN[C@H]1CC2(CCC2)Oc2ncc(C(F)(F)F)cc21 [compound 653] | > 10000 nM | 5800 nM | 600 nM | 114 µL/min/mg | 178 µL/min/mg | 6740 nM
COCC(=O)N[C@@H](Cc1cccc(F)c1)[C@H](O)CN[C@H]1CC2(CCC2)Oc2c(-c3ccnc(OC)c3)cc(CC(C)(C)C)cc21 [compound 654] | 34 nM | 9900 nM | 1000 nM | 477 µL/min/mg | 399 µL/min/mg | 6 nM
COCC(=O)N[C@@H](Cc1ccc2c(c1)OCO2)[C@H](O)CN[C@H]1CC2(CCC2)Oc2c1cc(CC(C)C)nc2Cl [compound 656] | 774 nM | 5300 nM | 100 nM | 180 µL/min/mg | 131 µL/min/mg | 51 nM
